Several values for one entry are separate records, joined by “and”; a condition that tells them apart may be missing. Equal entries are not always repeated. Toxic doses and inconclusive results are not listed.
System: BDF1 mice, Lewis lung carcinoma iv, survival T/C
Test: NCI In Vivo Anticancer Drug Screen. Data for tumor model Lewis Lung Carcinoma (intravenous) in B6D2F1 (BDF1) mice
Details: endpoint: median survival time, higher = longer survival
Method: The antitumor activity of compounds was measured in mice bearing transplantable tumors. Survival or tumor size were measured and the results are expressed as the measurement made in the treated group (T) divided by the measurement made in the vehicle treated control group (C). The tumor model used in this assay is Lewis Lung Carcinoma (intravenous) in B6D2F1 (BDF1) mice

[1] = dose: 3.13 mg/kg/injection, schedule: Q01DX009 (ip), vehicle: Klucel (hydroxypropylcellulose) (HPC)
[2] = dose: 6.25 mg/kg/injection, schedule: Q01DX009 (ip), vehicle: Klucel (hydroxypropylcellulose) (HPC)
[3] = dose: 12.5 mg/kg/injection, schedule: Q01DX009 (ip), vehicle: Klucel (hydroxypropylcellulose) (HPC)
[4] = dose: 3.12 mg/kg/injection, schedule: Q01DX009 (ip), vehicle: saline with Tween-80
[5] = dose: 6.25 mg/kg/injection, schedule: Q01DX009 (ip), vehicle: saline with Tween-80
[6] = dose: 12.5 mg/kg/injection, schedule: Q01DX009 (ip), vehicle: saline with Tween-80
[7] = dose: 25.0 mg/kg/injection, schedule: Q01DX009 (ip), vehicle: saline with Tween-80
[8] = dose: 100.0 mg/kg/injection, schedule: Q01DX009 (ip), vehicle: saline with Tween-80
[9] = dose: 400.0 mg/kg/injection, schedule: Q01DX009 (ip), vehicle: saline with Tween-80
[10] = dose: 12.5 mg/kg/injection, schedule: Q01DX009 (ip), vehicle: saline
[11] = dose: 25.0 mg/kg/injection, schedule: Q01DX009 (ip), vehicle: saline
[12] = dose: 50.0 mg/kg/injection, schedule: Q01DX009 (ip), vehicle: saline
[13] = dose: 100.0 mg/kg/injection, schedule: Q01DX009 (ip), vehicle: saline
[14] = dose: 200.0 mg/kg/injection, schedule: Q01DX009 (ip), vehicle: saline
[15] = dose: 400.0 mg/kg/injection, schedule: Q01DX009 (ip), vehicle: saline
[16] = dose: 50.0 mg/kg/injection, schedule: Q01DX009 (ip), vehicle: saline with Tween-80
[17] = dose: 200.0 mg/kg/injection, schedule: Q01DX009 (ip), vehicle: saline with Tween-80
[18] = dose: 25.0 mg/kg/injection, schedule: Q01DX009 (ip), vehicle: Klucel (hydroxypropylcellulose) (HPC)
[19] = dose: 12.5 mg/kg/injection, schedule: Q01DX009 (ip), vehicle: water
[20] = dose: 25.0 mg/kg/injection, schedule: Q01DX009 (ip), vehicle: water

O=C(CN1CC1)NCCCCCCCCNC(=O)CN1CC1
T/C [1]: 115 % of control | T/C [2]: 112 % of control | T/C [3]: 119 % of control

Cc1cc2cc3cc(C)c(N)cc3nc2cc1N
T/C [4]: 102 % of control | T/C [5]: 104 % of control | T/C [6]: 100 % of control | T/C [7]: 105 % of control

c1ccc2c3c(ccc2c1)Sc1ccc2ccccc2c1N3
T/C [8]: 111 % of control | T/C [9]: 102 % of control

C/C=C(\C)c1cc(=O)c2c(C)cc3c(c2o1)C(=O)c1c(O)c(C2CC(C)(N(C)C)C(OC(C)=O)C(C)O2)cc(C2CC(N(C)C)C(O)C(C)O2)c1C3=O (stereo unspecified)
T/C (dose: 0.15 mg/kg/injection, schedule: Q01DX009 (ip), vehicle: saline): 104 % of control | T/C (dose: 0.31 mg/kg/injection, schedule: Q01DX009 (ip), vehicle: saline): 101 % of control | T/C (dose: 0.62 mg/kg/injection, schedule: Q01DX009 (ip), vehicle: saline): 107 % of control | T/C (dose: 1.25 mg/kg/injection, schedule: Q01DX009 (ip), vehicle: saline): 98 % of control | T/C (dose: 2.5 mg/kg/injection, schedule: Q01DX009 (ip), vehicle: saline): 103 % of control | T/C (dose: 5.0 mg/kg/injection, schedule: Q01DX009 (ip), vehicle: saline): 119 % of control

O=c1[nH]c(=O)c2nc(-c3cccnc3)cnc2[nH]1
T/C [10]: 102 % of control | T/C [11]: 101 % of control | T/C [12]: 108 % of control | T/C [13]: 100 % of control | T/C [14]: 111 % of control | T/C [15]: 111 % of control

O=[N+]([O-])c1ccc(-n2[nH]nnc2=S)cc1
T/C [6]: 92 % of control | T/C [7]: 101 % of control | T/C [16]: 92 % of control | T/C [8]: 92 % of control | T/C [17]: 93 % of control

O=C1OC(C(O)CO)C(O)=C1O (stereo unspecified)
T/C [14]: 112 % of control | T/C [15]: 100 % of control

c1ccc(CCN2CCC(CCc3c[nH]c4ccccc34)CC2)cc1
T/C [10]: 100 % of control | T/C [11]: 104 % of control | T/C [12]: 116 % of control

CC(C)n1cc2c(N)ncnc2n1
T/C [11]: 107 % of control | T/C [12]: 112 % of control | T/C [13]: 117 % of control

COc1cc(C)c(C2NC(=O)c3ccccc3N2)cc1C (stereo unspecified)
T/C [18]: 105 % of control | T/C (dose: 50.0 mg/kg/injection, schedule: Q01DX009 (ip), vehicle: Klucel (hydroxypropylcellulose) (HPC)): 97 % of control | T/C (dose: 100.0 mg/kg/injection, schedule: Q01DX009 (ip), vehicle: Klucel (hydroxypropylcellulose) (HPC)): 92 % of control | T/C (dose: 200.0 mg/kg/injection, schedule: Q01DX009 (ip), vehicle: Klucel (hydroxypropylcellulose) (HPC)): 97 % of control | T/C (dose: 400.0 mg/kg/injection, schedule: Q01DX009 (ip), vehicle: Klucel (hydroxypropylcellulose) (HPC)): 101 % of control

CC1(C)CC23C4COC(=O)C2CCC1C3CC4=O (stereo unspecified)
T/C (dose: 1.5 mg/kg/injection, schedule: Q01DX009 (ip), vehicle: DMSO): 109 % of control | T/C (dose: 6.0 mg/kg/injection, schedule: Q01DX009 (ip), vehicle: DMSO): 161 % of control | T/C (dose: 12.0 mg/kg/injection, schedule: Q01DX009 (ip), vehicle: DMSO): 285 % of control | T/C (dose: 24.0 mg/kg/injection, schedule: Q01DX009 (ip), vehicle: DMSO): 185 % of control | T/C (dose: 48.0 mg/kg/injection, schedule: Q01DX009 (ip), vehicle: DMSO): 180 % of control

Cc1cc(/C=C/c2cc[n+](C)c3ccccc23)c(O)c2ncccc12
T/C [5]: 95 % of control | T/C [6]: 109 % of control

CCOC(=O)c1c[nH]c2oc(/C=N/N3CC(CN4CCOCC4)OC3=O)cc2c1=O (stereo unspecified)
T/C (dose: 6.25 mg/kg/injection, schedule: Q01DX009 (ip), vehicle: suspension in saline): 108 % of control | T/C (dose: 12.5 mg/kg/injection, schedule: Q01DX009 (ip), vehicle: suspension in saline): 105 % of control | T/C (dose: 25.0 mg/kg/injection, schedule: Q01DX009 (ip), vehicle: suspension in saline): 104 % of control | T/C (dose: 50.0 mg/kg/injection, schedule: Q01DX009 (ip), vehicle: suspension in saline): 114 % of control | T/C (dose: 100.0 mg/kg/injection, schedule: Q01DX009 (ip), vehicle: suspension in saline): 106 % of control

Nc1ncnc2c1ncn2C1C=C(CO)C(O)C1O (stereo unspecified)
T/C (dose: 0.5 mg/kg/injection, schedule: Q01DX009 (ip), vehicle: saline): 102 % of control | T/C (dose: 1.0 mg/kg/injection, schedule: Q01DX009 (ip), vehicle: saline): 98 % of control | T/C (dose: 2.0 mg/kg/injection, schedule: Q01DX009 (ip), vehicle: saline): 88 % of control | T/C (dose: 4.0 mg/kg/injection, schedule: Q01DX009 (ip), vehicle: saline): 95 % of control

O=CN(SSN(C=O)C1CCCCC1)C1CCCCC1
T/C [6]: 114 % of control | T/C [7]: 108 % of control | T/C [16]: 99 % of control | T/C [8]: 95 % of control | T/C [17]: 101 % of control | T/C [9]: 87 % of control

CC(Oc1ccccc1-c1ccccc1)C(=O)N(C)C (stereo unspecified)
T/C [6]: 118 % of control | T/C [7]: 95 % of control | T/C [16]: 113 % of control | T/C [8]: 93 % of control | T/C [17]: 113 % of control | T/C [9]: 114 % of control

COC1/C=C/O[C@@]2(C)Oc3c(C)c(O)c4c(O)c(cc(O)c4c3C2=O)NC(=O)/C(C)=C\C=C\[C@H](C)C(O)[C@@H](C)[C@@H](O)[C@@H](C)[C@H](OC(C)=O)[C@@H]1C (stereo partly specified)
T/C [6]: 102 % of control | T/C [7]: 101 % of control | T/C [16]: 103 % of control | T/C [8]: 107 % of control | T/C [17]: 102 % of control | T/C [9]: 111 % of control

C=C(C)/C([O-])=N/[N+](C)(C)CC(O)CCCCCCCCCCCC (stereo unspecified)
T/C (dose: 12.5 mg/kg/injection, schedule: Q01DX001 (ip), vehicle: saline): 99 % of control | T/C (dose: 50.0 mg/kg/injection, schedule: Q01DX001 (ip), vehicle: saline): 86 % of control | T/C (dose: 100.0 mg/kg/injection, schedule: Q01DX001 (ip), vehicle: saline): 92 % of control | T/C (dose: 200.0 mg/kg/injection, schedule: Q01DX001 (ip), vehicle: saline): 104 % of control | T/C (dose: 400.0 mg/kg/injection, schedule: Q01DX001 (ip), vehicle: saline): 87 % of control

COc1cc(C(C)(C)C)cc(OC)c1C(O)(c1c(OC)cc(C(C)(C)C)cc1OC)c1c(OC)cc(C(C)(C)C)cc1OC
T/C [5]: 99 % of control and 106 % of control | T/C [6]: 98 % of control and 99 % of control | T/C [7]: 97 % of control and 102 % of control | T/C [16]: 99 % of control

O=C1C2(Cl)C3(Cl)C4(Cl)C(Cl)(Cl)C5(Cl)[C@]3(Cl)C1(Cl)[C@]5(Cl)C24Cl (stereo partly specified)
T/C (dose: 1.56 mg/kg/injection, schedule: Q01DX009 (ip), vehicle: saline with Tween-80): 301 % of control | T/C [4]: 110 % of control | T/C [5]: 95 % of control | T/C [6]: 122 % of control

CN(C)c1ccc2c(N(C)C)cc(N(C)C)nc2c1
T/C (dose: 1.56 mg/kg/injection, schedule: Q01DX009 (ip), vehicle: Klucel (hydroxypropylcellulose) (HPC)): 98 % of control | T/C [1]: 95 % of control | T/C [2]: 102 % of control | T/C [3]: 99 % of control | T/C [18]: 111 % of control

CCCC(=O)Oc1ccc(/C=N/NC(N)=S)nc1
T/C [6]: 104 % of control and 109 % of control | T/C [7]: 109 % of control | T/C [16]: 96 % of control and 109 % of control | T/C [8]: 97 % of control and 104 % of control | T/C [17]: 120 % of control

Nc1nc(/C=C(/O)c2ccccc2)c2ncn(C3OC(CO)C(O)C3O)c2n1 (stereo unspecified)
T/C [10]: 109 % of control | T/C [11]: 107 % of control | T/C [12]: 102 % of control | T/C [13]: 104 % of control

Nc1nc2c(ncn2C2OC(CO)C(O)C2O)c(=O)[nH]1.Nc1nc2c(ncn2C2OC(CO)C(O)C2O)c(=O)[nH]1.[NH2-].[NH2-].[Pt+2] (stereo unspecified)
T/C [19]: 99 % of control | T/C [20]: 96 % of control | T/C (dose: 50.0 mg/kg/injection, schedule: Q01DX009 (ip), vehicle: water): 104 % of control | T/C (dose: 100.0 mg/kg/injection, schedule: Q01DX009 (ip), vehicle: water): 113 % of control

COc1ccc(-c2csc(=[N+]3CCCCC3)s2)cc1
T/C (dose: 1.56 mg/kg/injection, schedule: Q01DX009 (ip), vehicle: water): 94 % of control | T/C (dose: 3.12 mg/kg/injection, schedule: Q01DX009 (ip), vehicle: water): 101 % of control | T/C (dose: 6.25 mg/kg/injection, schedule: Q01DX009 (ip), vehicle: water): 100 % of control | T/C [19]: 99 % of control | T/C [20]: 108 % of control

O=C(C1CO1)C(Cl)(Cl)Cl (stereo unspecified)
T/C [10]: 98 % of control | T/C [11]: 102 % of control

— PubChem BioAssay AID274 (DTP/NCI, 2004)
